The values below are quoted from earlier work in publication PMC7365549 (ACS Omega, 2020).

The structures appear in SMILES notation. Bounds are passed on as bounds.

In general, Ki refers to a measure of affinity in units of concentration, obtained from inhibition or displacement.

Series [1] addresses T1, human serotonin receptor 5-HT3 (Homo sapiens, UniProt P46098).
T1 sequence (P46098 24-478): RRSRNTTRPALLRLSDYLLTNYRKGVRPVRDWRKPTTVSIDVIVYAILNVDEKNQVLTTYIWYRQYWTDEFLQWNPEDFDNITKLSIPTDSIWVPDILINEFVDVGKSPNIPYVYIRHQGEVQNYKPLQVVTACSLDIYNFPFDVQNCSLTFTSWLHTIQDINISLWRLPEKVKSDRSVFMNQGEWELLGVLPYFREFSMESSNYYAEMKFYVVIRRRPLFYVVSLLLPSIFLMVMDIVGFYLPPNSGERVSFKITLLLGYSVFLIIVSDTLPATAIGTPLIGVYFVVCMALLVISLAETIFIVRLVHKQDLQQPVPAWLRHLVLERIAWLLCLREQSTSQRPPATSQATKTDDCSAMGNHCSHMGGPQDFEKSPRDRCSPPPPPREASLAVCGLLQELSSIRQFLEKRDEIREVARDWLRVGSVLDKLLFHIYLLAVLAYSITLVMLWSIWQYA
The following applies: read-out: Inhibition Constants (Ki) 5-HT3; comparison values.

Series [2] has as its target T2, human serotonin receptor 5-HT1A (Homo sapiens, UniProt P08908).
T2 sequence (P08908 1-422): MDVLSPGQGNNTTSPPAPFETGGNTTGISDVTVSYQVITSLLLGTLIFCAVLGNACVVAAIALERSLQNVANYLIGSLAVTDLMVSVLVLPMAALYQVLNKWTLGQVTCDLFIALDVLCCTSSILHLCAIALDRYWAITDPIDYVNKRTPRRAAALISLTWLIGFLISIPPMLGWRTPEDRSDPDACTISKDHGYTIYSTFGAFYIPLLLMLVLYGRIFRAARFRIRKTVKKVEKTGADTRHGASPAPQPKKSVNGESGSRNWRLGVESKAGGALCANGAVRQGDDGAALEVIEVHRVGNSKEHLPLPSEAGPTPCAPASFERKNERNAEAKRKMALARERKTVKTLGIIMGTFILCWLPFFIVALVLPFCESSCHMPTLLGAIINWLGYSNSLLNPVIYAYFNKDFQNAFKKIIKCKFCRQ
The following applies: read-out: Inhibition Constants (Ki) 5-HT1A; comparison values.

Series [3] has as its target human serotonin receptor 5-HT2A (Homo sapiens, UniProt P28223). Particulars: read-out: Inhibition Constants (Ki) 5-HT2A; comparison values.
The target of series [4] is 5-HT3. Particulars: read-out: Ki, binding to 5-HT3 receptor.

human serotonin receptor 5-HT2A, sequence (P28223 whole entry): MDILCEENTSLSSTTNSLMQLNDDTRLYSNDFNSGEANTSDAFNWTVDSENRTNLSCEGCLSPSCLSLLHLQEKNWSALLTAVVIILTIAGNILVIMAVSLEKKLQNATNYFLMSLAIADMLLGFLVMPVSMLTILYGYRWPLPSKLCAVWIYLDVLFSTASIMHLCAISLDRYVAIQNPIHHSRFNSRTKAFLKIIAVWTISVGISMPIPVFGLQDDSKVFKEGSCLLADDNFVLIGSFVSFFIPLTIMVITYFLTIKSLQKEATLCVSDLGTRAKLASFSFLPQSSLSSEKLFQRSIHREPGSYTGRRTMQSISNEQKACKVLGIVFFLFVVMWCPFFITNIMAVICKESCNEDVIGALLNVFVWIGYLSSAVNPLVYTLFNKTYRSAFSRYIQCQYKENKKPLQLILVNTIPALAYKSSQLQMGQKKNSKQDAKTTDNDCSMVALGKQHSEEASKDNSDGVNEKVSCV

In the case of `CN(C)CCc1c[nH]c2cccc(O)c12` [psilocin], in series [1], the Ki was above 10 µM.

For the compound `CN(C)CCc1c[nH]c2cccc(OP(=O)(O)O)c12` [psilocybin], the Ki in series [1], in series [2] and in series [3] was above 10 µM in each case.

Consider `C[N+](C)(C)CCc1c[nH]c2ccc([O-])cc12` [Bufotenidine, bufotenidine], for which the Ki in series [4] was 17 nM.
